Results published in US20260069693A1, “UROLITHINS AND T-CELL MEDIATED IMMUNE RESPONSE” (priority 2022, published 2026).

Tested on: Splenic murine T cells
Test: aCD3/aCD28 stimulation of murine T cells in presence of UA, flow cytometry
Type: cell-based
Conditions: UA 50 μM + ICG001 10 μM, 48 h
Description: Mitochondrial remodelling has been previously associated with alterations in T cell fate (Buck et al., 2016; Yu et al., 2020b). Given the observed dependency of the UA effect on CD8^+ T cells, the inventors wondered whether UA may also directly affect T cell fate commitment. Purified T cells from FVB mice were stimulated with aCD3/aCD28 beads to induce T cell differentiation into effector T cell subsets in the presence or absence of UA for up to 72 hours (FIG. 2A). […] Previously, a rare naïve-like subset of T cells with enhanced stemness capabilities, termed T memory stem cells (TSCM) has been identified (Gattinoni et al., 2009). TSCM are marked by extreme longevity, their ability to self-renew, and potential for immune reconstitution (Gattinoni et al., 2017) which translates into potent anti-tumor immunity. Phenotypically, TSCM represent a subset of minimally differentiated T cells, which share a CD44^loCD62L^hi phenotype with naïve T cells, but are phenotypically distinct by expressing high levels of Sca1 (Gattinoni et al., 2009). […] This was associated with reduced cyclin D1 expression (not shown), in line with previous observations that link TSCM reprogramming to halted proliferation (Gattinoni et al., 2009; Verma et al., 2021).
Splenic murine T cells were isolated from mice aged 6-20 weeks by negative selection with EasySep mouse T cell isolation kit (Stem cell) according to the manufacturer's instructions. To monitor T cell proliferation, purified T cells were loaded with CellTrace Violet (C34557 ThermoFisher Scientific). T cell activation was initiated using αCD3/CD28 activation beads (11456D; ThermoFisher Scientific) at a ratio of 25 μl dynabeads per 0.5×10^6 T-cells. Cells were activated with 25-50 μM Urolithin A (Tocris) or DMSO in T cell activation Medium (RPMI (ThermoFisher Scientific) 10% FBS (South America origin), 10 mM Hepes (Sigma), 1× Non-Essential Amino Acid, 1 mM Sodium Pyruvate, 50 μM B-Mercaptoethanol, 100 U/ml penicillin, 100 μg/ml streptomycin and 2 mM Glutamax (ThermoFisher Scientific) for the indicated durations. In selected experiments, cells were stimulated in the presence of inhibitors, namely TCF1i (ICG-001; SelleckChem; 10 μM) and PGC-1αi (SR-18292, Sigma-Aldrich; 10 μm,). For subsequent analysis, activating beads were magnetically removed prior antibody staining. For human T cells, peripheral blood mononuclear cells were purified with a Ficoll-Paque (GE healthcare) gradient. T cells were enriched with EasySep Human T Cell Isolation Kit (StemCell) and activated with dynabead Human T-Activator CD3/CD28 for T Cell Expansion and Activation Kit (11131D; ThermoFisher Scientific), similar to murine T cell stimulation. […]
For flow cytometric analysis of mitochondria and lysosomes 500 μl of Mitotracker Red (200 nM; ThermoFisher) or Lysotracker Red DND-99 (75 nM; ThermoFisher) were applied followed by surface staining. To study changes in mitochondrial membrane potential, Mitoprobe TMRM kit (ThermoFisher) was used according to the manufacturer's instructions. Cell proliferation was assessed by CellTrace Violet (Invitrogen, C34557) at a concentration of 5 μM according to manufacturer's instructions. For human samples, cells were stained as described above with Fixable Viability Dye-eF780, αCD95-BV421 (DX2; 562616), αCD62L-PE (DREG-56; 555544), αCCR7-AF700 (150503; 561143), αCD45RO-APC (UCHL; 559865), αCD45RA-FITC (HI100; 555488), αCD8-PE-CF594 (RPA-T8; 562282) and αCD4-BV786 (OKT4; 566806) from BD.

O=C1[C@H](Cc2ccc(O)cc2)N2C(=O)CCN(C(=O)NCc3ccccc3)[C@H]2CN1Cc1cccc2ccccc12 [ICG001, reference compound]
UA-induced TSCM formation in vitro under TCF-1 block: abrogated
